Where two headings read alike, the source gives them in different places.
Experiments:
JCV strain Mad-4 = JCV strain Mad-4 infection of SVG-A cells; assay type: cell-based, JC polyomavirus (JCV); settings: 5 independent experiments
SVG-A cells = test: Total cell number (DAPI+ events) / cytotoxicity in the JCV infectivity assay; settings: for inhibition at 10 µM: Homo sapiens, SVG-A, read-out: % Inhibition total Cell Number @10 uM
Procedure: (§1) SV40 transformed glial cells were seeded in 10% FBS media. The cells were seeded at 2000 cells per well in 75 μl of media per well. On day 2, the media was removed and replaced by 35 μl of a 1× concentrated drug aliquot combined with a 100× diluted JCV Turbo aliquot in 35 μl of 2% FBS media (JCV Turbo is a hybrid Mad-1/SVEΔ virus constructed by insertion of the regulatory region of SV40 into the regulatory region of the Mad-1 strain of JCV (Mad-1/SVE), Vacante et al., Virology 1989, 170: 353-361). The cells were incubated for an hour, after which another 65 uL aliquot of 1× concentrated drug in 2% FBS was added. On day 5 the cells were stained with DAPI (for total cell number) and with a mouse monoclonal antibody against SV40 VP1, which cross reacts with the JCV VP1 protein. […] The information is tabulated as % inhibition (as measured by the number and percentage of JCV positive cells).
(§2) JCV Infectivity Assay: SVG-A cells were seeded at 2,000 cells/well/0.075 ml of culture media in 96 flat-bottom well plate (Corning, N.Y.). The next day compounds were prepared in assay medium (2% heat-inactivated fetal bovine serum, 4 mM L-glutamine, 1×MEM). A master viral plate was prepared by mixing equal volumes of [2×] compound and [2×] diluted virus for the final 1× concentration of the compound and the virus. The plate containing cells was gently inverted and shaken to remove media. From the master plate, 0.035 ml compound/virus was added to designated wells. The cells were incubated with the compound/virus mixture for 60 minutes in a humidified 37° C. CO2 incubator. At that time final concentration of the drug in media was added to designated wells to bring the final volume up to 0.1 ml/well. The plates were incubated for an additional three days, the cells were then washed once with 1×PBS, and fixed in 2% paraformaldehyde/1×PBS for 30 minutes at room temperature. The fixative was removed and the cells were solubilized with 0.5% Triton X100 in PBS for an additional 30 minutes. Infection by Mad-1/SVEΔ virus was visualized by staining with PAB597, a monoclonal antibody against the major capsid protein VP1, the cells were incubated with 0.05 ml of PAB597 (2 μg/ml in 1×PBS) for 60 minutes at 37° C. Following a wash step with 1×PBS, primary antibody was detected with an Alexa-Fluor 488-labeled goat anti-mouse secondary antibody at 1:100 dilution in 1×PBS, cells were counterstained with DAPI at 1 μg/ml (0.05 ml/well) for 30 minutes at 37° C. Cells were washed with 1×PBS and 0.1 ml 1×PBS was added to cells. Field images of each well were acquired and analyzed using the Cellomics ArrayScan (Thermo Scientific Inc, Waltham, Mass.) using the Target Activation software. […] The cells are seeded at 4,000 cells/well/0.075 ml of culture media in 96 flat-bottom well plate (Corning). The culture media is used for the infection. The length of the infection is six to ten days (instead of the three days for SVG-A cells).
The primary assay employed an SVG-A cell line and JCV Mad1/SVEΔ viral strain.

Mad1/SVEΔ JCV = test: JCV infection of primary human fetal astrocytes; assay type: cell-based, JC polyomavirus (JCV)
Procedure: CO2 incubator. […] The culture media is used for the infection.
FIG. 5A illustrates SVG-A cells with Mad1/SVEΔ JCV (n=12) virus. FIG. 5B illustrates primary human fetal astrocytes with Mad1/SVEΔ JCV.
Since during PML many cells are already infected with JC virus, in some embodiments a drug candidate for treatment of PML may be selected as one that can inhibit viral life cycle in already infected cells. […] In FIG. 7 various concentration of the drug were added to the culture of primary human fetal astrocytes infected with JC virus at the same time as virus (circles; T=0), 3 hours after virus addition (squires; T=3 h), or 24 hours after (triangles; T=24 h). Ten days after infection with the virus cells were fixed and number of virally infected cells was enumerated. Results of a representative experiment out of 4 different experiments with primary astrocytes or SVG-A cells are shown.

JCV DNA replication = JCV DNA replication by qPCR (TAg probe) in SVG-A cells; assay type: cell-based, JC polyomavirus (JCV); settings: 3 days after infection, compared with infection rate inhibition
JCV strain Mad1/SVEΔ = test: microbe, parasite or virus in culture; assay type: cell-based, JC polyomavirus (JCV); settings: for inhibition at 10 µM / IC50: JC polyomavirus
Procedure: as §1, §2
Calculations: The rate of JCV infection was calculated by normalizing the number of JCV infected cells by the total number of nucleated cells as % JCV^+ cells=((total # VP1^+ cells)/(total # DAPI^+ cells))*100%. The % of viral inhibition by a compound was calculated using a JCV infection rate instead of using total number of JCV infected cells (e.g., VP1^+ cells).

[1] = human, in vivo
Description: The published literature was reviewed for information on pharmacokinetics and brain distribution of these drugs in humans and in animal models. Since JC virus uncontrollably replicates in the oligodendrocytes and astrocytes of the effected individuals during PML but not all drugs are capable of crossing blood brain barrier it would be advantageous for any potential PML therapy if the drug candidate is capable of achieving efficacious concentration in the brain.

[2] = published PK data, cited from earlier work
[3] = # animal data; published PK data; cited from earlier work
[4] = Glial cell, read-out: % Inhibition (total #JCV+) @10 uM
[5] = SVG-A, read-out: % Inhibition (% JCV+) @10 uM

| Compound | inhibition of Mad4 infection of SVG-A cells, in words (JCV strain Mad-4) | inhibition at 10 µM (SVG-A cells) [%] | Inhibition of total cell numbers (DAPI+ events) (SVG-A cells; at the drug concentrations of the dose response curves) | CC50 (SVG-A cells; human, 3 days) [µM] | inhibition of JCV infection of primary human fetal astrocytes, in words (Mad1/SVEΔ JCV; compared with SVG-A cells) | inhibition of cell infection when added 3 or 24 hours post infection, in words (Mad1/SVEΔ JCV; primary human fetal astrocytes, read ten days after infection) | percent of JCV DNA inhibition, in words (JCV DNA replication) | anti-JCV activity in presence of cerebrospinal fluid (CSF), in words (JCV strain Mad1/SVEΔ; FIG. 10) | inhibition at 10 µM (JCV strain Mad1/SVEΔ; [4]) [%] | IC50 (JCV strain Mad1/SVEΔ; SVG-A) [µM] | inhibition at 10 µM (JCV strain Mad1/SVEΔ; [5]) [%] | IC50 (JCV strain Mad1/SVEΔ; SVG-A, read-out: IC50 (in vitro efficacious concentration)) [µM] | Brain concentration, approximated [1] [µM] | Cmax ([2]; read-out: plasma Cmax) [µM] | Brain [3] [µg/mL] | plasma Cmax [2] [ng/mL] |
| --- | --- | --- | --- | --- | --- | --- | --- | --- | --- | --- | --- | --- | --- | --- | --- | --- |
| OC(c1cc(C(F)(F)F)nc2c(C(F)(F)F)cccc12)C1CCCCN1 (racemic) [MEFLOQUINE, [2,8-bis(trifluoromethyl)quinolin-4-yl]-piperidin-2-ylmethanol] | the same efficacy as Mad1/SVEΔ infection | 5 | less than 20% | 16.1 | essentially the same efficacy as it inhibits viral infection in SVG-A cells | just as effective at inhibiting cell infection as it was when added to the cells together with the virus | almost overlaps the percent of infection rate inhibition | not inhibited by cerebrospinal fluid (CSF) | 66 | 4 | 64 | 3.9 ± 2.1 | 35 to 50 | 6 | – | – |
| Cc1cccc(Nc2ccccc2C(=O)O)c1C [MEFENAMIC ACID] | – | 0 | – | – | – | – | – | – | 29 | 10.9 | 29 | – | – | – | 0.8 | 10000 to 20000 |
